Results taken from patent publication US11576933B2, “Compositions and methods for an improved antitumor immune response” (EFFECTOR THERAPEUTICS, INC., priority 2017, dated 2023).

How the values were obtained:
myofibroblasts [1] = assay: TGFβ secretion from pre-formed myofibroblasts, Human TGF-B1 ELISA kit; type: cell-based; conditions: myofibroblasts pre-formed with 10 ng/ml TGFβ 24 hours, washed; inhibitor 0-100 nM for 48 hours; FIG. 3A
Procedure: (§1) Briefly, fibroblasts (Lonza #CC-2512; cell passage numbers 2 through 5 were used for all experiments) were seeded (Day 0) and cultured in Dulbecco's modified Eagle medium (DMEM) supplemented with 10% fetal bovine serum (FBS), penicillin, streptomycin and glutamax (Invitrogen) at 37° C. in a humidified incubator with 5% CO2 overnight. On Day 1, cells were washed with phosphate buffered saline (PBS), and then incubated for 72 hours in fresh serum-free DMEM supplemented with penicillin, streptomycin, and glutamax. On Day 4, cells were washed, followed by addition of fresh serum-free DMEM containing 10 ng/ml TGFβ, and cultured for 24 hours. On Day 5, cells were washed, followed by addition of fresh serum-free DMEM containing eIF4A inhibitor Cmp1 (0, 1.2, 3.7, 11.1, 33.3 or 100 nM), and cultured. Controls included untreated cells. At 48 hours post-addition of eIF4A inhibitor, 300 ul of culture media was harvested, centrifuged to pellet cellular debris, and frozen at −80° C. TGFβ1 in the culture medium was quantified using the Human TGF-B1 ELISA kit (R&D System DY240-05) according to the manufacturer's instructions. Procollagen type 1 C-Peptide (PIPC) levels were analyzed using the (PIP) EIA kit (Clontech, Cat. No. MK101) according to the manufacturer's instructions.

[2] = tested on: fibroblasts (Lonza #CC-2512); assay: α-SMA protein level by western blot in fibroblasts co-treated with TGFβ (fibroblast-to-myofibroblast transformation); type: cell-based; conditions: 24 hours co-incubation with 10 ng/ml TGFβ, inhibitor 0, 1.5, 4, 13 or 40 nM, FIG. 1
Procedure: (§2) Myofibroblasts are believed to be associated with tumor growth, vascularization, and metastasis (see, e.g., Webber et al., Cancer Res. 70:9621, 2010). The ability of Cmp1 or Cmp2 to inhibit the TGFβ-mediated fibroblast-to-myofibroblast transformation and components of the extracellular matrix was evaluated in fibroblasts.
(§3) Briefly, fibroblasts (Lonza #CC-2512; cell passage numbers 2 through 5 were used for all experiments) were seeded (Day 0) and cultured in Dulbecco's modified Eagle medium (DMEM) supplemented with 10% fetal bovine serum (FBS), penicillin, streptomycin and glutamax (Invitrogen) at 37° C. in a humidified incubator with 5% CO2 overnight. On Day 1, cells were washed with phosphate buffered saline (PBS), and then incubated for 48 hours in fresh serum-free DMEM supplemented with penicillin, streptomycin, and glutamax. […]
(§4) After a 24-hour incubation period, the effects of eIF4A inhibition on fibroblast transformation and production of extracellular matrix components were evaluated. Smooth muscle actin (α-SMA) protein levels were analyzed by western blot. Procollagen type 1 C-Peptide (PIPC) levels were analyzed by collecting culture media, centrifuging to pellet cellular debris, and quantifying using the (PIP) EIA kit (Clontech, Cat. No. MK101) according to the manufacturer's instructions.

[3] = tested on: fibroblasts (Lonza #CC-2512); assay: Procollagen type 1 C-Peptide (PIPC) secretion from fibroblasts co-treated with TGFβ, (PIP) EIA kit; type: cell-based; conditions: 24 hours co-incubation with 10 ng/ml TGFβ; inhibitor 0, 1.5, 4, 13 or 40 nM; FIGS. 2A and 2B
Procedure: as §2, §3, §4

myofibroblasts [4] = assay: Procollagen type 1 C-Peptide (PIPC) secretion from pre-formed myofibroblasts, (PIP) EIA kit; type: cell-based; conditions: myofibroblasts pre-formed with 10 ng/ml TGFβ 24 hours, washed; inhibitor 0-100 nM for 48 hours; FIG. 3B
Procedure: as §1

[5] = tested on: KPC-3 (mouse pancreatic carcinoma) tumor; assay: Tumor infiltrating lymphocytes (CD3+/CD8+ IHC) in allograft KPC-3 tumor model; type: in vivo; conditions: parenterally, C57BL/6J mice, versus vehicle; for CD3+ T cells in the KPC-3 tumor samples: FIG. 4B
Procedure: To evaluate the effect of an eIF4A inhibitor on tumor infiltrating lymphocytes, an allograft tumor model was used. Briefly, KPC-3 (mouse pancreatic carcinoma) cells grown in DMEM supplemented with 10% FBS were harvested during exponential growth and counted for tumor inoculation in immune competent C57BL/6J mice. Each mouse was inoculated subcutaneously with 0.1×10^6 KPC-3 tumor cells in the right flank region in 0.1 mL volume comprising a 1:1 ratio (volume to volume) of cells in growth media and Matrigel® matrix (BD Biosciences, San Jose Calif.). Tumors were grown to 100-200 mm^3 prior to study initiation. Before beginning treatment, all animals were weighed and tumor volumes measured using a caliper. Since the tumor volume can affect the effectiveness of any given treatment, mice were randomly assigned into vehicle and test article treatment groups after tumors had reached a similar size. Each study group contained 8 mice, with each group receiving either vehicle (D5W) or Cmp1 administered parenterally on two dosing schedules (0.33 mg/kg Q2D and 1 mg/kg Q1W for 17 days). Following treatment, tumor biopsies were collected for four representative animals from each treatment group, formalin-fixed, and paraffin-embedded. Tumor samples were sectioned and stained with anti-CD3 and anti-CD8 antibodies or isotype control. A hematoxylin nuclear counterstain was also applied. Image analysis and quantification were conducted using ImageDx™. Increased CD3^+ and CD8^+ T cell staining within the tumor sample for eIF4A inhibitor treatment relative to vehicle indicates an increase in infiltrating lymphocytes into the tumor.

Row | SMILES | levels of secreted TGFβ (myofibroblasts [1]) | α-SMA protein level (ratio of α-SMA to β-actin) [2] | procollagen type I secretion (PIPC) [3] | procollagen type I levels (myofibroblasts [4]) | CD3+ T cells in the KPC-3 tumor samples ([5]; 0.3 mg/kg Q2D for 17 days) | CD3+ T cells in the KPC-3 tumor samples ([5]; 1 mg/kg Q1W for 17 days) | CD8+ T cells in the KPC-3 tumor samples ([5]; 1 mg/kg Q1W for 17 days, FIG. 4C)
1 | COc1cc2c(c(OC)n1)[C@]1(O)[C@H](O)[C@H](CN(C)C)[C@@H](c3ccccc3)[C@]1(c1ccc(C#N)cc1)O2 (racemic) [Cmp1] | reduced the levels of secreted TGFβ in a dose-dependent manner | dose-dependent reduction | blocked the increase | dose-dependent decrease | significant increase | significant increase | significant increase
2 | COc1nc(Cl)cc2c1[C@]1(O)[C@H](O)[C@H](CN(C)C)[C@@H](c3ccccc3)[C@]1(c1ccc(C#N)cc1)O2 [Cmp2, 4-((5aR,6S,7S,8R,8aS)-3-chloro-7-((dimethylamino)methyl)-8,8a-dihydroxy-1-methoxy-6-phenyl-6,7,8,8a-tetrahydro-5aH-cyclopenta[4,5]furo[3,2-c]pyridin-5a-yl)benzonitrile] |  | dose-dependent reduction | blocked the increase |  |  |  | 
